# Assay results from ChEMBL document CHEMBL5346977, “Discovery of Novel d-(+)-Biotin-Conjugated Resorcinol Dibenzyl Ether-Based PD-L1 Inhibitors for Targeted Cancer Immunotherapy” (J Med Chem, 2023).
# Activity calls are given as the source filed them. The rule behind the calls is not given here.
# Assays:
# B16-F10 [1] = assay: Antitumor activity against mouse B16-F10 cells implanted in syngeneic C57BL/6 mouse assessed as decrease in tumor volume at 50 mg/kg, ip measured after 12 days relative to control; format: functional; parameters: scale not given: the % may be the effect or the level left; settings: time 12 day
# [2] = AUC (0 to infinity) in C57BL/6 mouse at 50 mg/kg, ip measured after 4 hrs by HPLC-MS/MS analysis; format: ADME, organism-based; parameters: dose 50 mg/kg, time 4 hrs, route ip; settings: in vivo
# [3] = Tmax in Sprague-Dawley rat at 20 mg/kg, po measured after 48 hrs by HPLC-MS/MS analysis; format: ADME, organism-based; settings: in vivo
# [4] = Apparent volume of distribution in Sprague-Dawley rat at 1 mg/kg, iv administered as single dose and measured after 48 hrs by HPLC-MS/MS analysis; format: ADME, organism-based; settings: in vivo, read-out: Vz
# [5] = Drug concentration in plasma of C57BL/6 mouse implanted with mouse B16-F10 cells at 50 mg/kg, ip measured after 2 hrs by UPLC-MS/MS analysis; format: ADME, organism-based
# [6] = Tmax in Sprague-Dawley rat at 1 mg/kg, iv administered as single dose and measured after 48 hrs by HPLC-MS/MS analysis; format: ADME, organism-based; settings: in vivo
# [7] = Drug concentration in spleen of C57BL/6 mouse implanted with mouse B16-F10 cells at 50 mg/kg, ip measured after 0.5 hrs by UPLC-MS/MS analysis; format: ADME, organism-based; settings: read-out: Ct
# [8] = AUC (0 to t) in Sprague-Dawley rat at 20 mg/kg, po measured after 48 hrs by HPLC-MS/MS analysis; format: ADME, organism-based; parameters: dose 20 mg/kg, time 48 hrs, route po; settings: in vivo
# [9] = Drug concentration in brain of C57BL/6 mouse implanted with mouse B16-F10 cells at 50 mg/kg, ip measured after 0.5 hrs by UPLC-MS/MS analysis; format: ADME, organism-based; settings: read-out: Ct
# [10] = Drug concentration in liver of C57BL/6 mouse implanted with mouse B16-F10 cells at 50 mg/kg, ip measured after 2 hrs by UPLC-MS/MS analysis; format: ADME, organism-based; settings: read-out: Ct
# [11] = Drug concentration in plasma of C57BL/6 mouse implanted with mouse B16-F10 cells at 50 mg/kg, ip measured after 0.5 hrs by UPLC-MS/MS analysis; format: ADME, organism-based
# [12] = target: Programmed cell death 1 ligand 1 (Homo sapiens, UniProt Q9NZQ7); assay: Binding affinity to human PD-L1 assessed as dissociation constant by SPR analysis
# [13] = Drug concentration in brain of C57BL/6 mouse implanted with mouse B16-F10 cells at 50 mg/kg, ip measured after 2 hrs by UPLC-MS/MS analysis; format: ADME, organism-based; settings: read-out: Ct
# [14] = Drug concentration in brain of C57BL/6 mouse implanted with mouse B16-F10 cells at 50 mg/kg, ip measured after 1 hrs by UPLC-MS/MS analysis; format: ADME, organism-based; settings: read-out: Ct
# [15] = Drug concentration in lung of C57BL/6 mouse implanted with mouse B16-F10 cells at 50 mg/kg, ip measured after 4 hrs by UPLC-MS/MS analysis; format: ADME, organism-based; settings: read-out: Ct
# [16] = target: Programmed cell death protein 1/Programmed cell death 1 ligand 1 (Homo sapiens, UniProt Q9NZQ7); assay: Inhibition of GST-tagged PD-1 (unknown origin)/His-tagged PD-L1 (unknown origin) interaction by HTRF binding assay relative to control; format: protein-complex assay
# [17] = Half-life in C57BL/6 mouse at 50 mg/kg, ip measured after 4 hrs by HPLC-MS/MS analysis; format: ADME, organism-based; settings: in vivo
# [18] = target: Programmed cell death 1 ligand 1 (Mus musculus, UniProt Q9EP73); assay: Binding affinity to mouse PD-L1 assessed as dissociation constant by MST analysis
# HepG2 [19] = assay: Antitumor immunity activity against human HepG2 cells expressing human PD-L1 co-cultured with human Jurkat T cells expressing human PD-1 assessed as reduction in cell viability incubated for 48 hrs by CCK8 assay; format: functional, cell-based; settings: dose 1.1-10 µM
# [20] = Toxicity in allogenic BALB/c mouse implanted with mouse B16-F10 cells assessed as severe crypt necrosis in colon at 50 mg/kg, ip by H&E staining based analysis; format: organism-based; settings: in vivo
# [21] = Drug concentration in spleen of C57BL/6 mouse implanted with mouse B16-F10 cells at 50 mg/kg, ip measured after 1 hrs by UPLC-MS/MS analysis; format: ADME, organism-based; settings: read-out: Ct
# [22] = AUC (0 to infinity) in Sprague-Dawley rat at 1 mg/kg, iv administered as single dose and measured after 48 hrs by HPLC-MS/MS analysis; format: ADME, organism-based; parameters: dose 1 mg/kg, time 48 hrs, route iv; settings: in vivo
# HepG2 [23] = assay: Antitumor immunity activity against human HepG2 cells expressing human PD-L1 co-cultured with human Jurkat T cells expressing human PD-1 assessed as reduction in cell viability at 10 uM incubated for 48 hrs by CCK8 assay relative to control; format: functional
# B16-F10 [24] = assay: Antitumor activity against mouse B16-F10 cells implanted in allogenic BALB/c mouse assessed as increase in CXCR3 mRNA level in tumor at 50 mg/kg, ip by qPCR analysis; format: functional, organism-based
# HepG2 [25] = assay: Antitumor activity against human HepG2 cells assessed as reduction in cell viability at 1.1 to 10 uM incubated for 48 hrs by CCK-8 assay; format: functional, cell-based; settings: dose 1.1-10 µM
# [26] = MRT (0 to t) in Sprague-Dawley rat at 1 mg/kg, iv administered as single dose and measured after 48 hrs by HPLC-MS/MS analysis; format: ADME, organism-based; settings: in vivo
# [27] = AUC (0 to infinity) in Sprague-Dawley rat at 20 mg/kg, po measured after 48 hrs by HPLC-MS/MS analysis; format: ADME, organism-based; parameters: dose 20 mg/kg, time 48 hrs, route po; settings: in vivo
# B16-F10 [28] = assay: Antitumor immunity against mouse B16-F10 cells implanted in allogenic BALB/c mouse assessed as increase in CD3+ T cells at 50 mg/kg, ip by flow cytometric analysis (reference value: 2.51%); format: functional
# [29] = MRT (0 to t) in C57BL/6 mouse at 50 mg/kg, ip measured after 4 hrs by HPLC-MS/MS analysis; format: ADME, organism-based; settings: in vivo
# [30] = Half-life in Sprague-Dawley rat at 20 mg/kg, po measured after 48 hrs by HPLC-MS/MS analysis; format: ADME, organism-based; settings: in vivo
# [31] = MRT (0 to infinity) in Sprague-Dawley rat at 1 mg/kg, iv administered as single dose and measured after 48 hrs by HPLC-MS/MS analysis; format: ADME, organism-based; settings: in vivo
# Jurkat = assay: Cytotoxicity against human Jurkat T cells assessed as reduction in cell viability at 1.1 to 10 uM incubated for 48 hrs by CCK-8 assay; format: toxicity, cell-based; settings: dose 1.1-10 µM
# [32] = Drug concentration in kidney of C57BL/6 mouse implanted with mouse B16-F10 cells at 50 mg/kg, ip measured after 2 hrs by UPLC-MS/MS analysis; format: ADME, organism-based; settings: read-out: Ct
# [33] = Clearance in C57BL/6 mouse at 50 mg/kg, ip measured after 4 hrs by HPLC-MS/MS analysis; format: ADME, organism-based; settings: in vivo
# B16-F10 [34] = assay: Antitumor activity against mouse B16-F10 cells implanted in allogenic BALB/c mouse assessed as decrease in PD-L1 mRNA level at 50 mg/kg, ip by qPCR analysis; format: functional, organism-based
# [35] = target: Programmed cell death protein 1/Programmed cell death 1 ligand 1 (Homo sapiens) (UniProt Q15116+Q9NZQ7); assay: Inhibition of GST-tagged PD-1 (unknown origin)/His-tagged PD-L1 (unknown origin) interaction at 10 nM by HTRF binding assay relative to control; format: protein-complex assay
# Sequence of Programmed cell death 1 ligand 1 (Mus musculus, UniProt Q9EP73) (Q9EP73 whole entry): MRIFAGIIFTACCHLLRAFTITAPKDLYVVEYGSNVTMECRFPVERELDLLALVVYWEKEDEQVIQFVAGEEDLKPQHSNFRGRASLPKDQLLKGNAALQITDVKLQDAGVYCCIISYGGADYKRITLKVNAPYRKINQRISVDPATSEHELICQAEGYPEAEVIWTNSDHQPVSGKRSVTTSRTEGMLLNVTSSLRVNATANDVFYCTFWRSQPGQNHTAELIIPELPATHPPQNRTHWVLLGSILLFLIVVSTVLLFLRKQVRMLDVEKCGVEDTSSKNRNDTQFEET
# Sequence of Programmed cell death 1 ligand 1 (Homo sapiens, UniProt Q9NZQ7) (Q9NZQ7 whole entry): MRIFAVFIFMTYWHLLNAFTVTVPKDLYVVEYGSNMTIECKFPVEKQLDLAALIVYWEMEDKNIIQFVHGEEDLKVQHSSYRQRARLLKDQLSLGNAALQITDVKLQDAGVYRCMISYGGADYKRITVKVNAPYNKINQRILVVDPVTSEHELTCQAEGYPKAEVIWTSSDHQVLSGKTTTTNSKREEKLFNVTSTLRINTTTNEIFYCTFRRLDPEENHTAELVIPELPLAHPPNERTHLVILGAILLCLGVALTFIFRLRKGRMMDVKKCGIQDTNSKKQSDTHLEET
# Sequence of Programmed cell death protein 1/Programmed cell death 1 ligand 1 (Q15116 whole entry): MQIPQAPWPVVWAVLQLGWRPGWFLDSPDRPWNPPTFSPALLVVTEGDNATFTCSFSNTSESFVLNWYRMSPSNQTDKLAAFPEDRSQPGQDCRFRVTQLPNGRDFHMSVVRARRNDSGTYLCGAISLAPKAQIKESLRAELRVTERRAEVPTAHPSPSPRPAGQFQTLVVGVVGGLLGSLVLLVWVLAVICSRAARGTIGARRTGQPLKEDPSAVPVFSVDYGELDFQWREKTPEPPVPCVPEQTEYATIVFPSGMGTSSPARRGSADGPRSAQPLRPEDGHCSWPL
# Sequence of Programmed cell death protein 1/Programmed cell death 1 ligand 1 (Q9NZQ7 whole entry): as the sequence (Q9NZQ7 whole entry) above
smiles,measurement,setting,value
Cc1c(COc2cc(OCc3cccc(C#N)c3)c(CN3CCCCC3C(=O)NCCNC(=O)CCCC[C@@H]3SC[C@@H]4NC(=O)N[C@@H]43)cc2Cl)cccc1-c1ccccc1 (stereo partly specified),Activity,B16-F10 [1],52.6%
same,AUC,[2],14501.641 µg/L/h
same,Tmax,[3],3.3 h
same,Vd,[4],31 L/kg
same,concentration at 2 h,[5],1400 ng/mL
same,Tmax,[6],4.98 min
same,concentration at 0.5 h,[7],4570 ng/mL
same,AUCt,[8],1160 ng·h/mL
same,concentration at 0.5 h,[9],2.5 ng/mL
same,concentration at 2 h,[10],1670 ng/mL
same,concentration at 0.5 h,[11],910 ng/mL
same,Kd,[12],43.7 nM
same,concentration at 2 h,[13],4.2 ng/mL
same,concentration at 1 h,[14],3 ng/mL
same,concentration at 4 h,[15],143 ng/mL
same,IC50,[16],1.8 nM
same,t1/2,[17],14.587 h
same,Kd,[18],438 nM
same,Activity,HepG2 [19],Dose-Dependent Effect
same,Activity,[20],Non-Toxic
same,concentration at 1 h,[21],3470 ng/mL
same,AUC,[22],832 ng·h/mL
same,Activity,HepG2 [23],2.7%
same,Activity,B16-F10 [24],Active
same,Activity,HepG2 [25],inactive
same,MRT last at 48 h,[26],11.6 h
same,AUC,[27],1170 ng·h/mL
same,Activity,B16-F10 [28],24.9%
same,MRT last at 4 h,[29],2.24 h
same,half-life,[30],2.6 h
same,MRT inf,[31],19.9 h
same,Activity,Jurkat,Non-Toxic
same,concentration at 2 h,[32],208 ng/mL
same,CL,[33],122.6 mL/min/kg
same,Activity,B16-F10 [34],Active
same,inhibition,[35],103%
